Assay results from patent US6649610B1, “2-oxo-1, 4-benzoxazine compounds for treatment of tuberculosis” (priority 2001, dated 2003).

Assays:
white mouse = details: intraperitoneal injection; cited from earlier work
man = details: cited from earlier work
[1] = system: M. tuberculosis ATCC 25177; assay: BACTEC 460 radiometric growth inhibition bio-assay; assay type: cell-based, Mycobacterium tuberculosis; details: final concentration of 0.1 mg/ml; BACTEC 12B medium; growth index
white mice = assay: Animal toxicity bioassay (acute toxicity, intraperitoneal); assay type: in vivo; details: intraperitoneal injection, observed 14 days
Protocol: (§1) Animal Toxicity Bioassay. Acute toxicity was studied on white mice of both sexes with weight ranging between 18-26 grams under intraperitoneal injection of 2% solution of tested compound in starch (the compound was dissolved in starch slime and injected) on the basis of 0.1 ml of solution per 10 g of the animal weight. Each dose was tested on the group of 6 animals that were observed during 14 day period. (This method was approved by the Pharmacology committee of Russian Ministry of Health and has been widely used since 1968.) Averaged lethal dose (LD50) of the compound was computed using results of experiments on 5-7 groups of animals using the method of Litchfield and Wilkinson. (Belenkii M. L. “Elements of quantative determination of the pharmacological effect,” Leningrad, 1963, 71 pages).

[2] = system: human and non-human myeloma; assay: Activity against myeloma
[3] = Animal toxicity bioassay (acute toxicity, intraperitoneal); assay type: in vivo; details: both sexes, mouse, in vivo, ip; white mice, intraperitoneal injection, observed 14 days
Protocol: as §1

Compound | LD50 (lethal dose 50 percent kill) (white mouse) | acute ingestion amount leading to mild toxicity (man; adults, acute ingestion) | ingestion amount that may be fatal (man; adults, acute ingestion) | ingestion amount usually fatal if not appropriately treated (man; adults, acute ingestion) | overall mortality rate for acute isoniazid toxicity (man; estimated) | hepatitis-related death rate (man; individuals who complete a full course of prophylaxis) | mortality rate (man; individuals who develop overt isoniazid-induced hepatitis) | LCL0 (lowest published lethal concentration) (man; man) | overall hepatitis-related death rate (man; patients using isoniazid prophylaxis) | percent activity against Mycobacterium tuberculosis [1] | LD50 (white mice) | activity against human and non-human myeloma [2] | LD50 at 14 day [3]
NNC(=O)c1ccncc1 [isoniazid, isonicotinic acid hydrazide] | 100 mg/kg | 1.5 g | 6 to 10 g | 15 g | 19% | 23.2-57.9 /100,000 | 10% | 100 mg/kg | approximately 0.001% |  |  |  | 
O=C(Oc1c(-c2nc3ccccc3oc2=O)c(=O)n2c(c1C(=O)c1ccccc1)c(=O)oc1ccccc12)c1ccccc1 [1F-18, 4-benzoyl-3-benzoyloxy-2-(2-oxo-2H-1,4-benzoxazin-3-yl)pyrido[2,1-c][1,4]benzoxazin-1,5-dione] |  |  |  |  |  |  |  |  |  | 95% | > 2000 mg/kg | 100% | 
COc1ccc(C(=O)C(C(=O)Oc2c(C)cc(C)cc2C)=C2Nc3ccccc3OC2=O)cc1 [1F-19, 2,4,6-trimethylphenyl 2-(3,4-dihydro-2-oxo-2H-1,4-benzoxazin-3-ylidene)-3-p-methoxyphenyl-3-oxo-propanoate] |  |  |  |  |  |  |  |  |  | 97% |  |  | > 1000 mg/kg
